From ChEMBL document CHEMBL1909294, “Translating clinical findings into knowledge in drug safety evaluation--drug induced liver injury prediction system (DILIps)” (PLoS Comput Biol, 2011)

Legend:
Hepatotoxicity [1] = test system: Hepatotoxicity;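 on HepSE cholecystitis: Cholecystitis-related hepatic side effect score drawn from the DILIps (drug-induced liver injury prediction) training data set; call rule not given here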;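 on HepSE cholelithiasis: hepatic side effect score for cholelithiasis, drawn from the DILIps training data for predicting drug-induced liver injury; call rule not given here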;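 on HepSE hepatic necrosis: score of hepatic side effects for hepatic necrosis, drawn from the training data of DILIps, a prediction system for drug-induced liver injury; call rule not given here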;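 on HepSE hepatomegaly: hepatic side effect score for hepatomegaly, taken from the training set of the DILIps drug-induced liver injury prediction system; call rule not given here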; on HepSE liver disease: call rule not given here;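 on HepSE liver function tests abnormal: hepatic side effect score taken from the DILIps (drug-induced liver injury prediction system) training data, here covering abnormal liver function test findings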
Hepatotoxicity [2] = test system: Hepatotoxicity; remark: listed apart in the source;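 on HepSE cholecystitis: Cholecystitis-related hepatic side effect score drawn from the DILIps (drug-induced liver injury prediction) training data set; call rule not given here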;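 on HepSE cholelithiasis: hepatic side effect score for cholelithiasis, drawn from the DILIps training data for predicting drug-induced liver injury; call rule not given here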;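 on HepSE hepatic necrosis: score of hepatic side effects for hepatic necrosis, drawn from the training data of DILIps, a prediction system for drug-induced liver injury; call rule not given here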;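 on HepSE hepatomegaly: hepatic side effect score for hepatomegaly, taken from the training set of the DILIps drug-induced liver injury prediction system; call rule not given here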; on HepSE liver disease: call rule not given here;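 on HepSE liver function tests abnormal: hepatic side effect score taken from the DILIps (drug-induced liver injury prediction system) training data, here covering abnormal liver function test findings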
Hepatotoxicity [3] = test system: Hepatotoxicity; remark: listed apart in the source;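 on HepSE cholecystitis: Cholecystitis-related hepatic side effect score drawn from the DILIps (drug-induced liver injury prediction) training data set; call rule not given here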;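 on HepSE cholelithiasis: hepatic side effect score for cholelithiasis, drawn from the DILIps training data for predicting drug-induced liver injury; call rule not given here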;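 on HepSE hepatic necrosis: score of hepatic side effects for hepatic necrosis, drawn from the training data of DILIps, a prediction system for drug-induced liver injury; call rule not given here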;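 on HepSE hepatomegaly: hepatic side effect score for hepatomegaly, taken from the training set of the DILIps drug-induced liver injury prediction system; call rule not given here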; on HepSE liver disease: call rule not given here;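 on HepSE liver function tests abnormal: hepatic side effect score taken from the DILIps (drug-induced liver injury prediction system) training data, here covering abnormal liver function test findings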
Hepatotoxicity [4] = test system: Hepatotoxicity; remark: listed apart in the source;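 on HepSE cholecystitis: Cholecystitis-related hepatic side effect score drawn from the DILIps (drug-induced liver injury prediction) training data set; call rule not given here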;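 on HepSE cholelithiasis: hepatic side effect score for cholelithiasis, drawn from the DILIps training data for predicting drug-induced liver injury; call rule not given here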;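 on HepSE hepatic necrosis: score of hepatic side effects for hepatic necrosis, drawn from the training data of DILIps, a prediction system for drug-induced liver injury; call rule not given here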;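 on HepSE hepatomegaly: hepatic side effect score for hepatomegaly, taken from the training set of the DILIps drug-induced liver injury prediction system; call rule not given here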; on HepSE liver disease: call rule not given here;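 on HepSE liver function tests abnormal: hepatic side effect score taken from the DILIps (drug-induced liver injury prediction system) training data, here covering abnormal liver function test findings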
Hepatotoxicity [5] = test system: Hepatotoxicity; remark: listed apart in the source; on HepSE liver disease: call rule not given here
Hepatotoxicity [6] = test system: Hepatotoxicity; remark: listed apart in the source; on HepSE liver disease: call rule not given here
Hepatotoxicity [7] = test system: Hepatotoxicity; remark: listed apart in the source
Hepatotoxicity [8] = test system: Hepatotoxicity; remark: listed apart in the source
Hepatotoxicity [9] = test system: Hepatotoxicity; remark: listed apart in the source
Hepatotoxicity [10] = test system: Hepatotoxicity; remark: listed apart in the source
Hepatotoxicity [11] = test system: Hepatotoxicity; remark: listed apart in the source
Hepatotoxicity [12] = test system: Hepatotoxicity; remark: listed apart in the source
Hepatotoxicity [13] = test system: Hepatotoxicity; remark: listed apart in the source
Hepatotoxicity [14] = test system: Hepatotoxicity; remark: listed apart in the source

SMILES | HepSE_cholecystitis (Hepatotoxicity [1]) | HepSE_cholelithiasis (Hepatotoxicity [2]) | HepSE_liver disease (Hepatotoxicity [3]) | HepSE_liver fatty (Hepatotoxicity [4]) | HepSE_hepatic necrosis (Hepatotoxicity [5]) | HepSE_hepatomegaly (Hepatotoxicity [6]) | HepSE_liver function tests abnormal (Hepatotoxicity [7]) | HepSE_hepatitis (Hepatotoxicity [8]) | HepSE_bilirubinemia (Hepatotoxicity [9]) | HepSE_hepatic failure (Hepatotoxicity [10]) | HepSE_cirrhosis (Hepatotoxicity [11]) | HepSE_Combined Scores (Hepatotoxicity [12]) | HepSE_elevated liver function tests (Hepatotoxicity [13]) | HepSE_jaundice (Hepatotoxicity [14])
CC#CCC(C)[C@H](O)/C=C/[C@@H]1[C@H]2C/C(=C/CCCC(=O)O)C[C@H]2C[C@H]1O (some centres not stated) [ILOPROST] | 0 | 0 | 0 | 0 | 0 | 0 | 0 | 0 | 0 | 0 | 0 | 0 | 0 | 0
CN(C)CCCN1c2ccccc2CCc2ccccc21 [IMIPRAMINE] | 0 | 0 | 0 | 0 | 0 | 0 | 0 | 0 | 0 | 0 | 0 | 1 | 0 | 1
CC(C)Cn1cnc2c(N)nc3ccccc3c21 [IMIQUIMOD] | 0 | 0 | 0 | 0 | 0 | 0 | 0 | 0 | 0 | 0 | 0 | 0 | 0 | 0
C#CC1(O)CCC2C3CCC4=CC(=O)CCC4C3C(=C)CC21CC (configuration not stated) [IMPLANON] | 0 | 0 | 0 | 0 | 0 | 0 | 0 | 0 | 0 | 0 | 0 | 0 | 0 | 0
Nc1cc(-c2ccncc2)c[nH]c1=O [INAMRINONE] | 0 | 0 | 0 | 0 | 0 | 0 | 0 | 0 | 0 | 0 | 0 | 1 | 0 | 1
CC1Cc2ccccc2N1NC(=O)c1ccc(Cl)c(S(N)(=O)=O)c1 (configuration not stated) [INDAPAMIDE] | 0 | 0 | 0 | 0 | 0 | 0 | 1 | 1 | 0 | 0 | 0 | 3 | 0 | 1
COc1ccc2c(c1)c(CC(=O)O)c(C)n2C(=O)c1ccc(Cl)cc1 [INDOMETHACIN] | 0 | 0 | 0 | 0 | 0 | 0 | 0 | 0 | 0 | 0 | 0 | 1 | 0 | 1
II [IODINE] | 0 | 0 | 0 | 0 | 0 | 0 | 0 | 1 | 0 | 0 | 0 | 1 | 0 | 0
O=C(CCCCC(=O)Nc1c(I)cc(I)c(C(=O)O)c1I)Nc1c(I)cc(I)c(C(=O)O)c1I [IODIPAMIDE] | 0 | 0 | 0 | 0 | 0 | 0 | 0 | 0 | 0 | 0 | 0 | 0 | 0 | 0
CC(=O)N(CC(O)CN(C(C)=O)c1c(I)c(C(=O)NCC(O)CO)c(I)c(C(=O)NCC(O)CO)c1I)c1c(I)c(C(=O)NCC(O)CO)c(I)c(C(=O)NCC(O)CO)c1I (configuration not stated) [IODIXANOL] | 0 | 0 | 0 | 0 | 0 | 0 | 0 | 0 | 0 | 0 | 0 | 0 | 0 | 0
CC(=O)N(CC(O)CO)c1c(I)c(C(=O)NCC(O)CO)c(I)c(C(=O)NCC(O)CO)c1I (configuration not stated) [IOHEXOL] | 0 | 0 | 0 | 0 | 0 | 0 | 0 | 0 | 0 | 0 | 0 | 0 | 0 | 0
C[C@H](O)C(=O)Nc1c(I)c(C(=O)NC(CO)CO)c(I)c(C(=O)NC(CO)CO)c1I [IOPAMIDOL] | 0 | 0 | 0 | 0 | 0 | 0 | 0 | 0 | 0 | 0 | 0 | 0 | 0 | 0
COCC(=O)Nc1c(I)c(C(=O)NCC(O)CO)c(I)c(C(=O)N(C)CC(O)CO)c1I (configuration not stated) [IOPROMIDE] | 0 | 0 | 0 | 0 | 0 | 0 | 0 | 0 | 0 | 0 | 0 | 0 | 0 | 0
